Numbered stars: 1 amine (or outer) side, 2 acyl side, 3 side chain; on linkers, the order of the positions; unused ones are H or OH. Square brackets hold non-standard residues; d marks the D form. Peptide text beside a SMILES is read from it. Trp(βS-Me,7-OMe) = COc1cccc2c([C@H](C)[C@H](N)C(=O)O)c[nH]c12; X49 = C[N+](C)(C)CC(=O)N[C@H]1C[C@H](C(=O)[*:2])N([*:1])C1; X44 = NC(=O)c1ccc([C@@H](O)[C@H](N[*:1])C(=O)[*:2])cc1; X28 = NC(=O)c1ccc([C@H](O)[C@H](N[*:1])C(=O)[*:2])cc1; Phe(2-F,4-COOH) = N[C@@H](Cc1ccc(C(=O)O)cc1F)C(=O)O; Trp(7-CN) = N#Cc1cccc2c(C[C@H](N)C(=O)O)c[nH]c12; Trp(7-Cl) = N[C@@H](Cc1c[nH]c2c(Cl)cccc12)C(=O)O; X27 = O=C(O)c1ccc(C[C@H](N[*:1])C(=O)[*:2])cc1F; Phe(4-CONH2) = NC(=O)c1ccc(C[C@H](N)C(=O)O)cc1; Phe(4-COOH) = N[C@@H](Cc1ccc(C(=O)O)cc1)C(=O)O; 4Pal(3S-Me) = C[C@@H](c1ccncc1)[C@H](N)C(=O)O; Trp(7-aza) = N[C@@H](Cc1c[nH]c2ncccc12)C(=O)O; Pip(5R-OH) = O=C(O)[C@@H]1CC[C@@H](O)CN1; X1 = O=C([C@@H]1CC[C@H](N[*:1])C1)[*:2]; Gly(But-3-enyl) = C=CCC[C@H](N)C(=O)O; Pip(4-aza) = O=C(O)[C@@H]1CNCCN1; 4Pal = N[C@@H](Cc1ccncc1)C(=O)O; NMeE = CN[C@@H](CCC(=O)O)C(=O)O; dHyp = O=C(O)[C@H]1C[C@H](O)CN1; aThr = C[C@H](O)[C@H](N)C(=O)O; Ahp(2) = CCCCC[C@H](N)C(=O)O; αMeS = C[C@](N)(CO)C(=O)O; Nle = CCCC[C@H](N)C(=O)O; Sar = CNCC(=O)O
Key:
[1] = molecular target: T1, human soluble TNFR1 (sTNFR1) (Homo sapiens, UniProt P19438); assay: Human sTNFR1-peptide displacement assay (LanthaScreen Eu TR-FRET binding assay)
T1 construct: made in house; host or cells: Sf21 (baculovirus)
T1 sequence (P19438 with tags, fused parts or gaps): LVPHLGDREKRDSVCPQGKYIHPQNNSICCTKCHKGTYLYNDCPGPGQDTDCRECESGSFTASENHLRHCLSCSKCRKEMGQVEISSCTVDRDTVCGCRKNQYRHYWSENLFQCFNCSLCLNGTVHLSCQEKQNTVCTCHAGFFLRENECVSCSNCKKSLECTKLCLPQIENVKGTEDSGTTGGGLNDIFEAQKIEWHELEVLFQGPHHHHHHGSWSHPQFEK
How it was run: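 Readout is the 665/615 nm TR-FRET ratio (Eu anti-His donor, streptavidin-Alexa647 acceptor), normalized to DMSO and saturating displacer, fit by Morrison-based five-parameter logistic for Kd^app. His-tagged sTNFR1 (1-211) prebound to 100 nM biotinylated peptide SEQ ID NO.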

[2] = molecular target: T2, TNFα-induced NF-κB signal transduction pathway (TNFR1 signaling) in THP-1 cells (Homo sapiens, UniProt P19438); assay: THP-1 Lucia NF-κB reporter cell assay, inhibition of TNFα-induced NF-κB signaling; type: cell-based; settings: THP-1 NF-κB Lucia reporter cells, 10 ng/mL TNFα, 16-18 h, secreted luciferase; read-out: THP-1 IC50
T2 sequence (P19438 30-455): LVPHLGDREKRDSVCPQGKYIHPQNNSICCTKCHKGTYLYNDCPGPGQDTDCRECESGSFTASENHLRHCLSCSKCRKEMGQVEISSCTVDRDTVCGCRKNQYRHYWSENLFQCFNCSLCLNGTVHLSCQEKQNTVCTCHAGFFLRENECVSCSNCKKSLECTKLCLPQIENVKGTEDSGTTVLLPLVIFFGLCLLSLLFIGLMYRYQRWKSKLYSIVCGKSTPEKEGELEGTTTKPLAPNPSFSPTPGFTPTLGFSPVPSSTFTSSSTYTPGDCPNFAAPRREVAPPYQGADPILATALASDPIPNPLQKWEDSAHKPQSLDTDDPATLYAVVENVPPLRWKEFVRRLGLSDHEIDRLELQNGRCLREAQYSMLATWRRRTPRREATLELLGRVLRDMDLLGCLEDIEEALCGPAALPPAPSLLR
How it was run: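 IC50 from a 4-parameter logistic fit of secreted luciferase luminescence (QUANTI-Luc), normalised to min/max controls. Reporter THP-1 cells were exposed to peptides for 1 h at 37 °C before 10 ng/mL TNFα (final) was added overnight (16–18 h).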

Row | Structure (SMILES) | Kd [1] | IC50 [2]
1 | CCCC[C@@H]1NC(=O)[C@@H]2CC[C@@H](C2)NC(=O)[C@H]([C@@H](C)c2c[nH]c3c(OC)cccc23)NC(=O)CN(C)C(=O)[C@H]([C@H](O)c2ccc(C(N)=O)cc2)NC(=O)[C@H]([C@@H](O)c2ccc(C(N)=O)cc2)NC(=O)[C@](C)(CO)NC(=O)[C@H](Cc2c[nH]c3c(C#N)cccc23)NC(=O)[C@H](Cc2ccc(C(=O)O)cc2)NC(=O)[C@H](CC(N)=O)NC(=O)[C@H]2C[C@H](O)CN2C(=O)[C@H](Cc2c[nH]c3ncccc23)NC(=O)[C@@H]2CC[C@@H](O)CN2C(=O)[C@H](Cc2ccncc2)NC1=O [SEQ ID NO. 90] (cyclo([4Pal][Pip(5R-OH)][Trp(7-aza)][dHyp]N[Phe(4-COOH)][Trp(7-CN)][αMeS][X28][X44][Sar][Trp(βS-Me,7-OMe)][X1][Nle])) | 120 pM | 1200 pM
2 | CCCCC[C@@H]1NC(=O)[C@@H]2CC[C@@H](C2)NC(=O)[C@H]([C@@H](C)c2c[nH]c3c(OC)cccc23)NC(=O)CN(C)C(=O)[C@H](Cc2ccc(C(N)=O)cc2)NC(=O)[C@H](Cc2ccc(C(N)=O)cc2)NC(=O)[C@](C)(CO)NC(=O)[C@H](Cc2c[nH]c3c(C#N)cccc23)NC(=O)[C@H](Cc2ccc(C(=O)O)cc2)NC(=O)[C@H](CC(N)=O)NC(=O)[C@H]2C[C@H](O)CN2C(=O)[C@H](Cc2c[nH]c3ccccc23)NC(=O)[C@H]([C@H](C)O)NC(=O)[C@H]([C@@H](C)c2ccncc2)NC1=O [SEQ ID NO. 91] (cyclo([Ahp(2)][4Pal(3S-Me)][aThr]W[dHyp]N[Phe(4-COOH)][Trp(7-CN)][αMeS][Phe(4-CONH2)][Phe(4-CONH2)][Sar][Trp(βS-Me,7-OMe)][X1])) | 240 pM | 900 pM
3 | C=CCC[C@@H]1NC(=O)[C@@H]2CC[C@@H](C2)NC(=O)[C@H]([C@@H](C)c2c[nH]c3c(OC)cccc23)NC(=O)CN(C)C(=O)[C@H](Cc2ccc(C(N)=O)cc2)NC(=O)[C@H](Cc2ccc(C(N)=O)cc2)NC(=O)[C@](C)(CO)NC(=O)[C@H](Cc2c[nH]c3c(Cl)cccc23)NC(=O)[C@H](Cc2ccc(C(=O)O)cc2)NC(=O)[C@H](CC(N)=O)NC(=O)[C@H]2C[C@H](O)CN2C(=O)[C@H](Cc2c[nH]c3ccccc23)NC(=O)[C@@H]2CC[C@@H](O)CN2C(=O)[C@H](Cc2ccncc2)NC1=O [SEQ ID NO. 103] (cyclo([4Pal][Pip(5R-OH)]W[dHyp]N[Phe(4-COOH)][Trp(7-Cl)][αMeS][Phe(4-CONH2)][Phe(4-CONH2)][Sar][Trp(βS-Me,7-OMe)][X1][Gly(But-3-enyl)])) | 50 pM | 800 pM
4 | CCCC[C@@H]1NC(=O)[C@@H]2CC[C@@H](C2)NC(=O)[C@H]([C@@H](C)c2c[nH]c3c(OC)cccc23)NC(=O)CN(C)C(=O)[C@H](Cc2ccc(C(=O)O)cc2F)NC(=O)[C@H](Cc2ccc(C(=O)O)cc2)NC(=O)[C@](C)(CO)NC(=O)[C@H](Cc2c[nH]c3c(Cl)cccc23)NC(=O)[C@H](Cc2ccncc2)NC(=O)[C@H](CC(N)=O)NC(=O)[C@H](CCC(=O)O)N(C)C(=O)[C@H](Cc2c[nH]c3ccccc23)NC(=O)[C@@H]2CNCCN2C(=O)[C@H](Cc2ccncc2)NC1=O [SEQ ID NO. 107] (cyclo([4Pal][Trp(7-Cl)][αMeS][Phe(4-COOH)][Phe(2-F,4-COOH)][Sar][Trp(βS-Me,7-OMe)][X1][Nle][4Pal][Pip(4-aza)]W[NMeE]N)) | 300 pM | 1000 pM
5 | CCCC[C@@H]1NC(=O)[C@@H]2CC[C@@H](C2)NC(=O)[C@H]([C@@H](C)c2c[nH]c3c(OC)cccc23)NC(=O)CN(C)C(=O)[C@H](Cc2ccc(C(=O)O)c(F)c2)NC(=O)[C@H](Cc2ccc(C(N)=O)cc2)NC(=O)[C@](C)(CO)NC(=O)[C@H](Cc2c[nH]c3c(C#N)cccc23)NC(=O)[C@H](Cc2ccc(C(=O)O)cc2)NC(=O)[C@H](CC(N)=O)NC(=O)[C@H]2C[C@H](NC(=O)C[N+](C)(C)C)CN2C(=O)[C@H](Cc2c[nH]c3ncccc23)NC(=O)[C@@H]2CC[C@@H](O)CN2C(=O)[C@H](Cc2ccncc2)NC1=O [SEQ ID NO. 113] (cyclo([4Pal][Pip(5R-OH)][Trp(7-aza)][X49]N[Phe(4-COOH)][Trp(7-CN)][αMeS][Phe(4-CONH2)][X27][Sar][Trp(βS-Me,7-OMe)][X1][Nle])) | 90 pM | 500 pM
